Measurements: US20210353579A1, “HIGH PENETRATION COMPOSITIONS AND USES THEREOF” (Techfields Pharma Co., Ltd., priority 2006, published 2021)
In brackets after ≈: the same amount, converted by molar mass. Where two headings read alike, the source gives them in different places.

Tests used:
[1] = Plasma levels after transdermal administration to hairless mice; settings: mouse, in vivo, po
[2] = as above; type: in vivo; settings: for t, time to peak plasma level after parent compound: parent compound administered (time when taken orally)
Experimental: Tested compounds (20% solution or suspension in 1 mL isopropanol) are administered transdermally to the skin of intact hairless mice. The plasma levels of the parent compounds are determined by HPLC.

[3] = test system: human skin tissue; settings: pH 7.4
[4] = in vivo; settings: rat
Experimental: (§1) The acute toxicity of the prodrug compounds and parent compounds are measured by LD50 of rat.

[5] = test system: human skin tissue; assay: In vitro penetration rate through human skin, modified Franz cells; settings: Franz cell; for In vitro penetration rate (apparent flux), prodrug compounds: 20% solution in 0.2 M phosphate buffer pH 7.4, human skin
[6] = test system: Human breast cancer cells (BCAP-37); assay: Human breast cancer xenograft in nude mice, topical
Experimental: Human breast cancer cells (BCAP-37, 2-3 mm^3 of tumor tissue was used in each mouse) are subcutaneously xenografted into the front leg of nude mice (BALB, 12 groups, 7 mice each group). […] Then 30 μl of 5% (equal to 1.5 mg of the HPPs) diethylaminoethyl acetylsalicylate.acetylsalicylic acid salt (P-1, in acetone); 1-piperidinepropyl 2[(2,6-dichlorophenyl)amino]benzene acetate.AcOH (P-2, in water), 1-pyrrolidinepropyl 2-(3-benzoylphenyl) propionate.AcOH (P-3, in water), 4-piperidinemethyl 2-(3-phenoxyphenyl)propionate.AcOH (P-4, in water), 3-piperidinemethyl 2-(ρ-isobutylphenyl) propionate.AcOH (P-5, in water), diethylaminoethyl 1-(p-chlorobenzoyl)-5-methoxy-2-methylindole 3-acetate.AcOH (P-11, in water), 2-(4-morpholinyl)ethyl (Z)-5-fluoro-2-methyl-1-[(4-methylsulfinyl) phenylmethylene]-1H-indene-3-acetate.AcOH (P-12, in water), diethylaminoethyl

[7] = test system: rats; assay: Antipyretic activity, E. coli suspension as pyrogen; type: in vivo; settings: in °C (unit assumed)
Experimental: Rats are administered with sterilized E. coli suspension as a pyrogen. Each group of rats are administered with a prodrug compounds or parent compounds at a dosage specified below. The prodrug compounds are administered either orally or transdermally. The parent compounds are administered orally.

[8] = Solubility in water / aqueous solubility of HPPs and parent drugs; settings: for Solubility of HPP: medium not given
[9] = test system: rat
Experimental: as §1

[10] = test system: mice; assay: Analgesic activity, acetic acid writhing; type: in vivo; settings: 30 min before acetic acid
Experimental: The prodrug compounds are administered either transdermally or orally. The parent compounds are administered orally. The number of writhing that occurred when mice are administered the acetic acid solution are counted, and the rate of inhibition based on the control group which was not pretreated with any test compounds is calculated. […] The A group is the control group.

[11] = test system: Human colon cancer cells (LS174J); assay: Human colon cancer xenograft in nude mice, topical; settings: day 30, about 30 μl of 5% solution (1.5 mg) topically applied
Description: Human colon cancer cells (LS174J, 2-3 mm^3 of tumor tissue was used in each mouse) are subcutaneously xenografted into the front leg of nude mice (BALB).

[12] = test system: Chinese white rabbits; assay: Malassezia-induced lesions similar to psoriasis; type: in vivo, rabbit; settings: 5% aqueous solution twice per day, 10 days after application
Description: Heavy suspensions of Malassezia [Rosenberg, E. W., et al., Mycopathologia, 72, 147-154 (1980)] were applied to the shaved skin on the backs of the Chinese white rabbits (n=4×6) twice (at 7 am and 7 pm) per day for 2 weeks, lesions similar to psoriasis resulted.

[13] = test system: mice; assay: Analgesic activity, D'Amour-Smith method (tail heat, pain threshold); type: in vivo; settings: 200 mg/kg transdermally vs 200 mg/kg diflunisal orally
Experimental: After the tested compounds are administered (the dosages for each test compounds are specified in FIG. 3, prodrug compounds are administered orally and transdermally respectively in different groups, while parent compounds are administered orally) to a group of mice (six mice every group), the tails of mice are exposed to heat and the prolongation time of pain threshold is determined. […] The prodrug compounds show similar analgesic activities when the same dosages are administered orally or transdermally. (FIG. 3)

[14] = test system: C57/BL6 mice, MPTP; assay: MPTP Parkinson's disease mice: GABA and Glu in substantia nigra and striatum; settings: mouse, in vivo
Experimental: Group A mice were i.p. injected 0.4% sodium carboxymethylcellulos (15 ml/kg per day) for 7 days. Group B and C mice were i.p. injected N-methyl-4-phenyl-1,2,3,6-tetrahydropyridine (MPTP, 30 mg/kg per day) for 7 days. The mice were divided into 2 groups. […] All mice were killed after the last treatment and the brain tissues were quickly frozen at −80° C. […] The contents of GABA and Glu in the striatum and SN were shown by high performance amino acid auto-analyser.

[15] = Distribution of prodrug and metabolites in tissues after application to the back of killed rats; type: in vivo; settings: Wistar, rat, 50 mg/kg, 3 h after 50 mg/kg prodrug citric acid salt on the back of killed rat, 37° C.
Experimental: The mixture was centrifuged for 5 minutes at 16,000 rpm. The supernatant (2 ml) was collected and evaporated to dryness.

[16] = parent compound administered, hairless mice
[17] = transdermal, 20% in 1 mL isopropanol, hairless mice
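For LD50 in this document: acute toxicity in rats expressed as LD50, determined for both prodrugs and their parent compounds.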
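For LD50 of HPP in this document: acute toxicity in rats expressed as LD50, determined for both prodrugs and their parent compounds.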
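For LD50 of parent drug in this document: acute toxicity in rats expressed as LD50, determined for both prodrugs and their parent compounds.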

| Compound | t, time to peak plasma level after parent compound [1] | Peak plasma concentration after parent compound ([2]; mouse, in vivo) | In vitro penetration rate (apparent flux), parent compounds [3] | Peak plasma concentration of parent compound after prodrug compound [2, 17] | t, time to peak plasma level of parent compound after prodrug compound [2, 17] | body temperature, t = 0 min ([7]; 100 mg/kg transdermally) | body temperature, t = 90 min ([7]; 100 mg/kg transdermally) | body temperature, t = 180 min ([7]; 100 mg/kg transdermally) | body temperature, t = 270 min ([7]; 100 mg/kg transdermally) | % (rate of writhing inhibition) ([10]; 100 mg/kg transdermally) | No. of Writhing ([10]; 100 mg/kg transdermally) | In vitro penetration rate (apparent flux), prodrug compounds [5] | further results |
| --- | --- | --- | --- | --- | --- | --- | --- | --- | --- | --- | --- | --- | --- |
| Nc1c(CC(=O)O)cccc1C(=O)c1ccc(Br)cc1 [Bromofenac, bromofenac] | 1 to 2 h | 0.1 mg/L | 10 μg/cm^2/h |  |  |  |  |  |  |  |  |  |  |
| O=C(O)CC(O)c1ccc(-c2ccc(Cl)cc2)o1 (centres unmarked) [Orpanoxin, orpanoxin] | 2 to 4 h | 10 mg/L | 30 μg/cm^2/h |  |  |  |  |  |  |  |  |  |  |
| CN1C(C(=O)Nc2nccs2)=C(O)c2ccccc2S1(=O)=O [Sudoxiam, sudoxiam] | 2 to 4 h | 0.1 mg/L | <1 μg/cm^2/h |  |  |  |  |  |  |  |  |  |  |
| CC1=C(CC(=O)O)c2cc(F)ccc2/C1=C\c1ccc([S+](C)[O-])cc1 (centres unmarked) [Sulindac, sulindac, reference compound] |  |  |  |  |  |  |  |  |  |  |  |  | t, time to peak plasma level after parent compound [2]: 1 to 2 h; Peak plasma concentration after parent compound [2, 16]: 0.1 mg/L; LD50 [4]: 260 mg/kg; In vitro penetration rate (apparent flux), parent compounds ([5]; 20% suspension in 0.2 M phosphate buffer pH 7.4, human skin, detection limit 1): 10 μg/cm^2/h |
| CC(=O)O.CCN(CC)CCOC(=O)Cc1c(C)n(C(=O)c2ccc(Cl)cc2)c2ccc(OC)cc12 [diethylaminoethyl 1-(p-chlorobenzoyl)-5-methoxy-2-methylindole 3-acetate.AcOH] |  |  |  | 20 mg/L | 50 min | 37.35 ± 0.06 | 36.91 ± 0.05 | 36.85 ± 0.08 | 36.79 ± 0.07 | 55% | 15.6 | 1100 μg/cm^2/h | Tumor size ([6]; day 42, 30 μl of 5% (1.5 mg) topically every 8 hours from day 14, control 800 ± 100): 210 ± 100 mm^3; Mouse weight ([6]; mouse, in vivo): 21 ± 2 g; Solubility of HPP [8]: >250 mg/mL; LD50 of HPP ([9]; rats): 100 mg/kg |
| CC(=O)O.CCN(CC)CCOC(=O)Cc1ccc(C(=O)c2ccc(C)cc2)n1C [diethylaminoethyl 1-methyl-5-(4-methylbenzoyl)-1H-pyrrole-2-acetate.AcOH] |  |  |  | 20 mg/L | 50 min | 37.27 ± 0.06 | 36.71 ± 0.05 | 36.65 ± 0.08 | 36.59 ± 0.07 | 51% | 17.1 | 1000 μg/cm^2/h | Mouse weight [11]: 21 ± 2 g; Tumor size [11]: 610 ± 200 mm^3; LD50 of HPP ([9]; rat, in vivo): 600 mg/kg; lesions similar to psoriasis [12]: the lesions were resolved |
| CC(=O)O.CCN(CC)CCOC(=O)c1cc(-c2ccc(F)cc2F)ccc1O [diethylaminoethyl 5-(2,4-difluorophenyl) salicylate.AcOH] |  |  |  |  |  | 37.22 ± 0.07 | 36.42 ± 0.06 | 36.40 ± 0.05 | 36.47 ± 0.08 | 71% | 10.2 |  | Peak plasma concentration of parent compound after prodrug compound ([2]; mouse, in vivo): 50 mg/L; t, time to peak plasma level of parent compound after prodrug compound ([2]; mouse, in vivo): 30 min; body temperature, t = 0 min ([7]; 150 mg/kg transdermally): 37.26 ± 0.08; body temperature, t = 90 min ([7]; 150 mg/kg transdermally): 36.20 ± 0.05; body temperature, t = 180 min ([7]; 150 mg/kg transdermally): 36.30 ± 0.07; body temperature, t = 270 min ([7]; 150 mg/kg transdermally): 36.31 ± 0.08; LD50 of HPP ([9]; rats): 1000 mg/kg; % (rate of writhing inhibition) ([10]; 50 mg/kg transdermally): 62%; No. of Writhing ([10]; 50 mg/kg transdermally): 13.2; In vitro penetration rate (apparent flux), prodrug compounds [3]: 100 μg/cm^2/h; analgesic activity, prolongation time of pain threshold of mice tails [13]: stronger analgesic activity |
| CC(=O)O.CCN(CC)CCOC(=O)Cc1cc(C)c(C(=O)c2ccc(Cl)cc2)n1C [diethylaminoethyl 5-(4-Chlorobenzoyl)-1,4-dimethyl-1H-pyrrole-2-acetate.AcOH] |  |  |  | 20 mg/L | 50 min | 37.21 ± 0.07 | 36.82 ± 0.06 | 36.70 ± 0.05 | 36.70 ± 0.08 | 55% | 15.6 | 1200 μg/cm^2/h | LD50 of HPP ([9]; rat, in vivo): 200 mg/kg; lesions similar to psoriasis [12]: the lesions were resolved |
| CC(=O)O.CCN(CC)CCOC(=O)C(C)c1ccc2c(c1)[nH]c1ccc(Cl)cc12 (stereo not drawn) [diethylaminoethyl 6-chloro-α-methyl-9H-carbazole-2-acetate.AcOH] |  |  |  | 2000 mg/L | 50 min | 37.28 ± 0.06 | 36.68 ± 0.05 | 36.62 ± 0.08 | 36.58 ± 0.07 | 59% | 14.2 | 4000 μg/cm^2/h | Solubility of HPP [8]: >350 mg/mL; Solubility in water ([8]; product as prepared in Example 1): 400 mg/mL; LD50 of HPP ([9]; rats): 700 mg/kg |
| NC(=O)C[S+]([O-])C(c1ccccc1)c1ccccc1 (centres unmarked) [modafinil, reference compound] |  |  |  |  |  |  |  |  |  |  |  |  | increase of nigrostriatal Glu release induced by MPTP [14]: did not change |
| O=C(O)c1ccccc1O [salicylic acid] |  |  |  |  |  |  |  |  |  |  |  |  | t, time to peak plasma level after parent compound [2]: 1 to 2 h; Peak plasma concentration after parent compound [2, 16]: 0.1 mg/L; concentration at 3 h ([15]; read-out: amount in Bone): 35000 ± 6000 ng/g; concentration at 3 h ([15]; read-out: amount in Brain): 30000 ± 6000 ng/g; concentration at 3 h ([15]; read-out: amount in Liver): 45000 ± 8000 ng/g; concentration at 3 h ([15]; read-out: amount in Plasma): 65 ± 10 µg/mL; solubility ([8]; water): 0.1 mg/mL (≈ 724 µM); In vitro penetration rate (apparent flux), parent compounds ([3]; human, 20 %): <1 μg/cm^2/h |
| salicylsalicylic acid [Salsalate, reference compound] | 1 to 2 h | 0.1 mg/L | <1 μg/cm^2/h |  |  |  |  |  |  |  |  |  | LD50 of parent drug ([9]; rats): 1500 mg/kg |
